The supplement of paper PMC8671470

What was measured:
Conditions in all cases: 72 h
Mono-Mac-6 = system: Mono-Mac-6
How it was run: (§1)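 Seeded in RPMI 1640 at densities within the linear growth range, fifteen myeloid leukaemia cell lines were dispensed into 384-well plates with acoustically pre-printed compounds spanning five tenfold doses from 1 to 10,000 nM, in duplicate. The plates were kept for 72 h at 37 °C in 5% CO2 before luminescent ATP viability was measured and normalised to vehicle and to a positive control at 10 µM. Curves were fitted with a four-parameter log-logistic model. The IC50 was taken from those curves.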

KU-812 [1] = system: KU-812
How it was run: as §1

HEL [2] = system: HEL
How it was run: as §1

MOLM-13 [3] = system: MOLM-13
How it was run: as §1

K-562 [4] = system: K-562
How it was run: as §1

KG-1 [5] = system: KG-1
How it was run: as §1

THP-1 [6] = system: THP-1
How it was run: as §1

KCL-22 [7] = system: KCL-22
How it was run: as §1

SHI-1 [8] = system: SHI-1
How it was run: as §1

HL-60 [9] = system: HL-60
How it was run: as §1

LAMA-84 = system: LAMA-84
How it was run: as §1

MV4-11 [10] = system: MV4-11
How it was run: as §1

BV-173 = system: BV-173
How it was run: as §1

NOMO-1 [11] = system: NOMO-1
How it was run: as §1

ML-2 [12] = system: ML-2
How it was run: as §1

KU-812 [13] = assay: cell viability (% survival relative to DMSO control, bortezomib = 0%); higher = less cytotoxic
How it was run: (§2)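 Percent survival figures are means of duplicate wells. They were obtained by CellTiter-Glo luminescence after 10 AML and 5 CML cell lines spent 72 h at 37 °C with 5% CO2 in 384-well plates with compounds at 1, 10, 100, 1000 or 10000 nM. Vehicle was set to 100% and a 10 µM positive control to 0%.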

HEL [14] = assay: as above
How it was run: as §2

MOLM-13 [15] = assay: as above
How it was run: as §2

K-562 [16] = assay: as above
How it was run: as §2

KG-1 [17] = assay: as above
How it was run: as §2

THP-1 [18] = assay: as above
How it was run: as §2

KCL-22 [19] = assay: as above
How it was run: as §2

SHI-1 [20] = assay: as above
How it was run: as §2

HL-60 [21] = assay: as above
How it was run: as §2

MV4-11 [22] = assay: as above
How it was run: as §2

NOMO-1 [23] = assay: as above
How it was run: as §2

ML-2 [24] = assay: as above
How it was run: as §2

HL-60 [25] = assay: cell viability (% survival relative to DMSO control); higher = less cytotoxic
How it was run: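 In 384-well plates, the full library was rescreened in duplicate on HL-60 cells in RPMI 1640 with 10% FBS, at 1–10,000 nM in five tenfold concentrations, for 72 h at 37 °C, 5% CO2. Each run also held DMSO or 100 nM of one of three metabolic inhibitors. Viability was measured by CellTiter-Glo and normalised to DMSO wells and to wells with proteasome inhibitor, present at 10 μM. Any area under the curve comes from four-parameter log-logistic fitting with drc and PharmacoGx.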

Cc1cc(C(=O)NNCc2ccccc2)no1 [Isocarboxazid]
Conditions	IC50 (cell viability) [µM]
BV-173	> 10
HEL [2]	> 10
HL-60 [9]	> 10
K-562 [4]	> 10
KCL-22 [7]	> 10
KG-1 [5]	> 10
KU-812 [1]	> 10
LAMA-84	> 10
ML-2 [12]	> 10
MOLM-13 [3]	> 10
MV4-11 [10]	> 10
Mono-Mac-6	> 10
NOMO-1 [11]	> 10
SHI-1 [8]	> 10
THP-1 [6]	> 10

cell viability [%]
Conditions	1 nM	10 nM	100 nM	1000 nM	10000 nM
HEL [14]	112	87.8	111	92.6	103
HL-60 [21]	107	90.1	106	122	102
K-562 [16]	116	91.5	88.5	99.6	107
KCL-22 [19]	105	91.3	94.3	98.3	65.6
KG-1 [17]	96.5	109	98.5	108	91.1
KU-812 [13]	96.2	99.6	93.8	93.9	100
ML-2 [24]	95	101	101	90.4	85.4
MOLM-13 [15]	104	96.3	103	106	96.6
MV4-11 [22]	107	95	97.5	81.4	80.4
NOMO-1 [23]	105	103	109	112	92
SHI-1 [20]	101	99.9	98.4	99.1	95.2
THP-1 [18]	97.8	102	110	97.4	86.7

cell viability [%], HL-60 [25]
Conditions	0.001 µM	0.01 µM	0.1 µM	1 µM	10 µM
co-treatment: AZD3965 100 nM	103	103	94.9	99.03	101
co-treatment: DMSO vehicle	102	101	96.3	99.7	100
co-treatment: GSK2194069 100 nM	101	102	87	102	98.2
co-treatment: pictilisib 100 nM	102	96.8	86.6	103	90

CCn1c(=Cc2cccc[n+]2CC)sc(=C2Sc3ccccc3N2C)c1=O [MKT 077]
Conditions	IC50 (cell viability) [µM]
BV-173	> 10
HEL [2]	> 10
HL-60 [9]	4.45
K-562 [4]	3.59
KCL-22 [7]	> 10
KG-1 [5]	> 10
KU-812 [1]	> 10
LAMA-84	> 10
ML-2 [12]	> 10
MOLM-13 [3]	3.76
MV4-11 [10]	3.37
Mono-Mac-6	> 10
NOMO-1 [11]	> 10
SHI-1 [8]	3.28
THP-1 [6]	> 10

cell viability [%]
Conditions	1 nM	10 nM	100 nM	1000 nM	10000 nM
HEL [14]	117	87	95.7	105	125
HL-60 [21]	101	84.5	101	136	2.97
K-562 [16]	109	88.1	103	108	1.35
KCL-22 [19]	106	98.5	90	103	107
KG-1 [17]	99	103	138	102	79.3
KU-812 [13]	101	103	107	98.3	61.8
ML-2 [24]	91.7	98	106	102	101
MOLM-13 [15]	115	108	119	115	0.148
MV4-11 [22]	113	99.9	109	104	0.22
NOMO-1 [23]	98	96.2	98.1	94	95.2
SHI-1 [20]	95.9	98.7	97.3	98.8	2.85
THP-1 [18]	99.6	105	108	98.2	86.1

cell viability [%], HL-60 [25]
Conditions	0.001 µM	0.01 µM	0.1 µM	1 µM	10 µM
co-treatment: AZD3965 100 nM	95.2	102	97.3	88.22	97.7
co-treatment: DMSO vehicle	102	105	97.35	100.14	106
co-treatment: GSK2194069 100 nM	92	104	96	76.1	73.5
co-treatment: pictilisib 100 nM	95.6	113.3	99.2	93.3	110

CN(Cc1cnc2nc(N)nc(N)c2n1)c1ccc(C(=O)N[C@@H](CCC(=O)O)C(=O)O)cc1 [Methotrexate]
Conditions	IC50 (cell viability) [µM]
BV-173	0.0323
HEL [2]	0.0037
HL-60 [9]	0.00701
K-562 [4]	0.033
KCL-22 [7]	0.0126
KG-1 [5]	> 10
KU-812 [1]	0.0157
LAMA-84	0.00473
ML-2 [12]	0.00965
MOLM-13 [3]	0.00757
MV4-11 [10]	0.00896
Mono-Mac-6	0.00826
NOMO-1 [11]	0.0515
SHI-1 [8]	0.0808
THP-1 [6]	0.0319

cell viability [%]
Conditions	1 nM	10 nM	100 nM	1000 nM	10000 nM
HEL [14]	102	18.6	27.9	6.63	7.79
HL-60 [21]	81.5	32	5.38	7.28	8.39
K-562 [16]	86.9	103	13.3	18.9	21.7
KCL-22 [19]	97.1	59.2	40.4	21.1	20.7
KG-1 [17]	104	93.8	98.9	94.3	92.9
KU-812 [13]	99	63.1	38.9	33.3	42.5
ML-2 [24]	109	49.7	3.59	3.44	4.58
MOLM-13 [15]	88.1	33.1	0.91	0.853	0.962
MV4-11 [22]	112	45.4	3.4	2.47	3.21
NOMO-1 [23]	108	94.8	40.4	29.4	30.8
SHI-1 [20]	83.7	90.7	44.4	35.8	47.1
THP-1 [18]	99.8	96.6	13	10.3	11.8

cell viability [%], HL-60 [25]
Conditions	0.001 µM	0.01 µM	0.1 µM	1 µM	10 µM
co-treatment: AZD3965 100 nM	108	50.6	28	26.3	26.8
co-treatment: DMSO vehicle	101.2	68.4	42.4	32.7	41.2
co-treatment: GSK2194069 100 nM	110	72.4	39	27.9	29.7
co-treatment: pictilisib 100 nM	104	69.8	32.358	27.3	28.1
